Assay results taken from US20020169123A1, “Regulating apoptosis in TRAIL-resistant cancer cells, while protecting normal, non-cancerous cells” (THE TRUSTEES OF THE UNIVERSITY OF PENNSYLVANIA, priority 2001, published 2002).

Experiments:
[1] = test system: all cells, including cancer cells; test: protection from the killing effect of TRAIL by caspase inhibitors; type: cell-based; settings: stated without experimental detail
[2] = test system: TE5 cells; test: suppression of endogenous Bcl-xL by anti-sense morpholino, western blot and active-caspase 3 assay; type: cell-based, human
Method: Anti-sense Bcl-xL morpholino oligonucleotides (5′-[…]-3′) (SEQID NO:2) for suppressing expression of endogenous Bcl-xL in vivo, and fluorescein-labeled standard control oligonucleotides were purchased from Gene Tools, LLC (Corvallis, Oreg.). The scrape delivery method was used to deliver the oligonucleotides to the cells. Briefly, cells (1×10^6/well) were seeded into a 6-well culture plate, and after 16 hours of incubation, the medium was changed with 1 mL of fresh medium containing 20 μM morpholino oligonucleotides (chemically modified antisense oligonucleotides). Then, the cells were scraped out of the plates using a cell scraper (SARSTEDT, Newton, N.C.). After gently pipetting up and down twice, the cells were transferred to a new culture plate. After 48 hours of incubation, the cells were treated under the indicated conditions described in the corresponding figures for the example in which the cells were used. […] The effect is not seen in normal cells.
To confirm the effect of Bcl-xL on the synergistic cell killing, we introduced anti-sense Bcl-xL morpholino oligonucleotides (AS Bcl-xL) were introduced into TE5 cells. This was to determine the effect of suppression of the endogenous Bcl-xL in the TE5 cells. […]

Substance	protection from the killing effect of TRAIL [1]	expression of endogenous Bcl-xL ([2]; 20 μM morpholino oligonucleotide, scrape delivery, western blot)	cell death by adriamycin plus TRAIL when Bcl-xL is suppressed ([2]; even in the presence of z-LEHD-FMK)
z-IETD-FMK	protect all cells, including cancer cells, from the killing effect of TRAIL		
AS Bcl-xL: Anti-sense Bcl-xL morpholino oligonucleotide 5'-CGGTTGCTCTGAGACATTTTTATA-3' (SEQID NO:2), from Gene Tools (all phosphorodiamidate morpholino (PMO))		suppression of endogenous Bcl-xL was observed	underwent synergistic apoptotic cell death
